pIC50: −log10 of the molar value. Counter-ions that a name gives are not always drawn. Like-named read-outs stand apart in the source and are kept apart here.
How the values were obtained:
[1] = system: neuronal uptake of 5-hydroxytryptamine; experiment: Inhibition of the uptake of 14C-5-HT in brain slices after in vivo (i.p.) administration; parameters: species or system mice; conditions: for ED50: Mus musculus, ip, 0.5 h; for Inhibition of the uptake in vivo i.p. ED50 5-HT: 30 min
Protocol: (§1) The test method described in Europ. J. Pharmacol. 17, 107, 1972. This method involves the measurement of the decrease in the uptake of ^14C-5-hydroxytryptamine (^14C-5-HT) and ^3H- -noradrenaline (^3H-NA) in brain slices from mice after in vivo and in vitro administration of the test substance.
(§2) The test substances were administered intraperitoneally half an hour before the animals were killed. The midbrain was taken out, sliced and incubated in a mixture consisting of 0.2 nmole of ^14C-5-HT, 0.2 nmole of ^3H-NA and 11 µmole of glucose in 2 ml of Krebs Henseleit-buffer, pH 7.4 per 100 mg of brain slices. The incubation time was 5 minutes with 5 minutes of preincubation before the labelled amines were added. The slices were dissolved in Soluene and the amounts of radioactive amines taken u^p were determined by liquid scintillation. The doses producing 50 per cent decrease of the active uptake (ED50) of ^14C-5-HT and ^3H-NA were determined graphically from dose response curves. Active uptake is defined as that part of the radioactive uptake which is inhibited by a high concentration of cocaine.

[2] = system: neuronal uptake of noradrenaline; experiment: Inhibition of the uptake of 3H-NA in brain slices after in vivo (i.p.) administration; parameters: species or system mice; conditions: for ED50: Mus musculus, ip, 0.5 h; for Inhibition of the uptake in vivo i.p. ED50 NA: 30 min
Protocol: as §1, §2

[3] = system: neuronal uptake of 5-hydroxytryptamine and noradrenaline; experiment: Overall assessment of the uptake tests (selectivity NA versus 5-HT); parameters: species or system mouse; conditions: summary of the results of Table I
[4] = target: neuronal uptake of 5-hydroxytryptamine (Mus musculus, UniProt Q60857); experiment: Inhibition of the uptake of 14C-5-HT in mouse midbrain slices, in vitro administration; format: cell-based; conditions: slices from mouse brain (midbrain), 5 min preincubation with compound
Protocol: as §1
as §2, with “Active uptake is defined as that part of the radioactive uptake which is inhibited by a high concentration of cocaine.” left out
(§3) In the vitro administration method slices of mouse midbrain were preincubated for 5 minutes with solution of the compound to be tested and then incubated as described above. The concentration producing 50 per cent inhibition of the active uptake IC50 of ^14C-5-HT and 3-H-NA was determined graphically from dose response curves.

[5] = target: neuronal uptake of noradrenaline (Mus musculus, UniProt O55192); experiment: Inhibition of the uptake of 3H-NA in mouse midbrain slices, in vitro administration; format: cell-based; conditions: slices from mouse brain (midbrain), 5 min preincubation with compound
Protocol: as §1
as §2, with “Active uptake is defined as that part of the radioactive uptake which is inhibited by a high concentration of cocaine.” left out
as §3

[6] = i.p. half an hour before the animals were killed, midbrain slices, read-out: Inhibition of the uptake in vivo i.p. ED50 5-HT
[7] = i.p. half an hour before the animals were killed, midbrain slices, read-out: Inhibition of the uptake in vivo i.p. ED50 NA
[8] = i.p. half an hour before the animals were killed, midbrain slices
[9] = read-out: Inhibition of the uptake in vivo i.p. ED50 5-HT, i.p. half an hour before the animals were killed, midbrain slices
[10] = read-out: Inhibition of the uptake in vivo i.p. ED50 NA, i.p. half an hour before the animals were killed, midbrain slices
[11] = i.p. half an hour before the animals were killed, midbrain slices, hydrochloride

neuronal uptake of noradrenaline (Mus musculus, UniProt O55192), sequence (O55192 whole entry): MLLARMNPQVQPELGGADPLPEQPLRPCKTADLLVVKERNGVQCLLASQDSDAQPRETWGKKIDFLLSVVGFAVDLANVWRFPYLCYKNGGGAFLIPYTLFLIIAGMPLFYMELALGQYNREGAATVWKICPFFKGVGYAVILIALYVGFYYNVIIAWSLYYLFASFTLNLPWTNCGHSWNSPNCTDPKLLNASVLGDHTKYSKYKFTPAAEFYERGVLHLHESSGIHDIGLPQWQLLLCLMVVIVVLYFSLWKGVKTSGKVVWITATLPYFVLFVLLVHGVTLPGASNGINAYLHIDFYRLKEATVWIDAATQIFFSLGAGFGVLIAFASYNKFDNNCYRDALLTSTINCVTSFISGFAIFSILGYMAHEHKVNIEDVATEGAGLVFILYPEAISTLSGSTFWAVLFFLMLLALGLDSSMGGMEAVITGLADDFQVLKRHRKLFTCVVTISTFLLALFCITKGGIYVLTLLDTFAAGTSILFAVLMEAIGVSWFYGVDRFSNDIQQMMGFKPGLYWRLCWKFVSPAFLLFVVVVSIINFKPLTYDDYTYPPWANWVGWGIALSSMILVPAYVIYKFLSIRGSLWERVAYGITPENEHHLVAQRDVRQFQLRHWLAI
neuronal uptake of 5-hydroxytryptamine (Mus musculus, UniProt Q60857), sequence (Q60857 whole entry): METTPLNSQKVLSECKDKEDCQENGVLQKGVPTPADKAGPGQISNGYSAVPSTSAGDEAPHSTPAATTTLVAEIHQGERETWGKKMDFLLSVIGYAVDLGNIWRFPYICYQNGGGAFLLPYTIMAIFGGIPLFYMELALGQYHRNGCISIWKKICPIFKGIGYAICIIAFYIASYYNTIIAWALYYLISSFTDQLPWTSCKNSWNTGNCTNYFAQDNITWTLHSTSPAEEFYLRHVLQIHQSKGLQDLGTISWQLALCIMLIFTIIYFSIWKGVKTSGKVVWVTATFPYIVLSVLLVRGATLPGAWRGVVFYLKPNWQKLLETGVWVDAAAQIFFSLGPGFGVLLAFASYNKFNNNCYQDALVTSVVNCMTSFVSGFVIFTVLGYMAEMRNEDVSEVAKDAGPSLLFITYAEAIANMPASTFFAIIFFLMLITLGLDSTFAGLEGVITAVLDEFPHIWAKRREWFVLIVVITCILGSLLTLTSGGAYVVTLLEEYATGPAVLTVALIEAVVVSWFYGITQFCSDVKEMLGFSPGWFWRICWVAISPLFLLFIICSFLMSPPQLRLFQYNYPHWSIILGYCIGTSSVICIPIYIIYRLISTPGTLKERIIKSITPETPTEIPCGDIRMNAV

Compound	ED50 [1, 6]	ED50 [2, 7]	Inhibition of the uptake in vivo i.p. ED50 NA [2, 8]	also measured
CC(N)CC(c1ccccc1)c1cccc(Br)c1 (stereo not shown) [CPK 155, 3-(3-bromophenyl)-1-methyl-3-phenylpropylamine]	> 95 µmol/kg	49 µmol/kg	–	–
CC(N)CC(c1ccccc1)c1ccc(C(F)(F)F)cc1 (single isomer, unassigned) [CPK 199, (β)-1-methyl-3-(4-trifluoromethylphenyl)-3-phenylpropylamine maleate]	–	–	>98 µmol/kg	Inhibition of the uptake in vivo i.p. ED50 5-HT [1, 8]: >98 µmol/kg
CC(N)CC(c1ccccc1)c1ccc(C(F)(F)F)cc1 (single isomer, unassigned) [CPK 195, (α)-1-methyl-3-(4-trifluoromethylphenyl)-3-phenylpropylamine maleate]	–	–	–	ED50 [1, 9]: 98 µmol/kg; ED50 [2, 10]: > 98 µmol/kg
CC(N)/C=C(/c1ccc(Br)cc1)c1cccnc1 (stereo not shown) [CPP 179]	89 µmol/kg	> 89 µmol/kg	–	–
CC(N)CC(c1ccc(F)cc1)c1ccc(F)cc1.Cl (stereo not shown) [FLA 615, 3,3-di-(4-fluorophenyl)-1-methylpropylamine hydrochloride]	29 µmol/kg	57 µmol/kg	–	activity on uptake of noradrenaline and 5-hydroxytryptamine (assessment in words) [3]: pronounced selective activity on uptake of 5-hydroxytryptamine
COc1ccc(C(=CC(C)N)c2ccc(OC)cc2)cc1.O=C(O)/C=C/C(=O)O (stereo not shown) [FLA 611, 3-amino-1,1-di(4-methoxyphenyl)--1-butene fumarate]	63 µmol/kg	108 µmol/kg	–	activity on uptake of noradrenaline and 5-hydroxytryptamine (assessment in words) [3]: pronounced selective activity on uptake of 5-hydroxytryptamine
Cc1cccc(C(=CC(C)N)c2cccc(C)c2)c1 (stereo not shown) [FLA 618, 3-amino-1,1-di-(3-methylphenyl)-1-butene hydrochloride]	93 µmol/kg	56 µmol/kg	–	–
CC(N)CC(c1ccccc1)c1ccccc1Br (single isomer, unassigned) [CPK 197, (β)-3-(2-bromophenyl)-1-methyl-3--phenyl-propylamine maleate]	–	–	28 µmol/kg	Inhibition of the uptake in vivo i.p. ED50 5-HT [1, 8]: >95 µmol/kg
(Z)-3-amino-1-(4-bromophenyl)-1--phenylbutene maleate [CPK 150]	–	–	96 µmol/kg	pIC50 [4]: 5.52; Inhibition of the uptake in vivo i.p. ED50 5-HT [1, 8]: >96 µmol/kg; pIC50 [5]: 5.70
CC(N)C=C(c1ccc(Br)cc1)c1ccc(Br)cc1 (stereo not shown) [FLA 608, 3-amino-1,1-di(4-bromophenyl)-1--butene hydrochloride]	62 µmol/kg	57 µmol/kg	–	–
CC(N)C=C(c1ccc(F)cc1)c1ccc(F)cc1 (stereo not shown) [FLA 613, 3-amino-1,1-di-(4-fluorphenyl)-1-butene fumarate]	38 µmol/kg	106 µmol/kg	–	–
CNCC=C(c1ccc(Br)cc1)c1cccnc1 [N-methyl-3-(4-bromophenyl)-3-(3-pyridyl)-allylamine Z-isomer, N-methyl-3-(4-bromophenyl)-3-(3-pyridyl)-allylamine, reference compound]	–	–	>102 µmol/kg	Inhibition of the uptake in vivo i.p. ED50 5-HT [1, 8]: 19 µmol/kg
CC(N)CC(c1ccccc1)c1ccc(F)cc1 (single isomer, unassigned) [CPK 170, (β)-3-(4-fluorophenyl)-1--methyl-3-phenylpropylamine hydrochloride]	–	–	–	activity on uptake of noradrenaline and 5-hydroxytryptamine (assessment in words) [3]: pronounced non-selective activity; Inhibition of the uptake in vivo i.p. ED50 5-HT [1, 11]: 37 µmol/kg; Inhibition of the uptake in vivo i.p. ED50 NA [2, 11]: 34 µmol/kg
COc1ccc(C(CC(C)N)c2ccccc2)cc1 (single isomer, unassigned) [CPK 160]	–	–	–	activity on uptake of noradrenaline and 5-hydroxytryptamine (assessment in words) [3]: pronounced non-selective activity
CN(C)CCCN1c2ccccc2CCc2ccc(Cl)cc21 [Chloroimipramine, reference compound]	–	–	–	pIC50 [5]: 6.05; ED50 [2, 10]: 150 µmol/kg
CC(N)/C=C(/c1ccccc1)c1cccc(Br)c1 (stereo not shown) [CPK 217, (Z)-3-amino-1-(3-bromophenyl)-1-phenylbutene]	118 µmol/kg	35 µmol/kg	–	–
CC(N)CC(c1ccccc1)c1ccc(Br)cc1 (single isomer, unassigned) [CPK 171, (β)-3-(4-bromophenyl)-1-methyl-3-phenylpropylamine]	–	–	29 µmol/kg	activity on uptake of noradrenaline and 5-hydroxytryptamine (assessment in words) [3]: pronounced non-selective activity; Inhibition of the uptake in vivo i.p. ED50 5-HT [1, 8]: 29 µmol/kg
Cc1cccc(C(CC(C)N)c2cccc(C)c2)c1 (stereo not shown) [FLA 619, 1,3', 3"-trimethyl-3,3-diphenyl-propylamine oxalate]	116 µmol/kg	48 µmol/kg	–	–
CNCC=C(c1ccc(Br)cc1)c1cccnc1 [N-methyl-3-(4-bromophenyl)-3-(3-pyridyl)-allylamine E-isomer, N-methyl-3-(4-bromophenyl)-3-(3-pyridyl)-allylamine, reference compound]	–	–	25 µmol/kg	–
CC(N)CC(c1ccccc1)c1ccccc1 (stereo not shown) [3,3-diphenyl-1-methylpropylamine fumarate, reference compound]	75 µmol/kg	50 µmol/kg	–	–
CC(N)CC(c1ccccc1)c1cccc(Br)c1 (single isomer, unassigned) [CPK 184, (β)-3-(3-bromophenyl)-1-methyl-3-phenylpropylamine]	9.9 µmol/kg	7.7 µmol/kg	–	activity on uptake of noradrenaline and 5-hydroxytryptamine (assessment in words) [3]: pronounced non-selective activity
COc1ccc(C(CC(C)N)c2ccccc2)cc1 (single isomer, unassigned) [CPK 198, (β)-3-(4-methoxyphenyl)-1-methyl-3-phenylpropylamine]	–	–	52 µmol/kg	activity on uptake of noradrenaline and 5-hydroxytryptamine (assessment in words) [3]: pronounced selective activity on uptake of 5-hydroxytryptamine; Inhibition of the uptake in vivo i.p. ED50 5-HT [1, 8]: 33 µmol/kg
COc1ccc(C(CC(C)N)c2ccccc2)cc1 (single isomer, unassigned) [CPK 180, (α)-3-(4-methoxyphenyl)-1-methyl-3-phenylpropylamine]	–	–	–	ED50 [1, 9]: 54 µmol/kg; ED50 [2, 10]: 78 µmol/kg
CC(N)CC(c1ccccc1)c1ccc(F)cc1 (single isomer, unassigned) [CPK 163, (α)-3-(4-fluorophenyl)-1-methyl-3-phenylpropylamine oxalate]	32 µmol/kg	32 µmol/kg	–	–
CC(N)CC(c1ccccc1)c1ccc(Br)cc1 (single isomer, unassigned) [CPK 165, (α)-3-(4-bromophenyl)-1-methyl-3-phenylaropylamine maleate]	–	–	62 µmol/kg	Inhibition of the uptake in vivo i.p. ED50 5-HT [1, 8]: 61 µmol/kg
CC(N)CC(c1ccccc1)c1ccccc1Br (single isomer, unassigned) [CPK 185, (α)-3-(2-bromophenyl)-1-methyl-3-phenylpropylamine maleate]	–	–	4.1 µmol/kg	activity on uptake of noradrenaline and 5-hydroxytryptamine (assessment in words) [3]: pronounced selective activity on uptake of noradrenaline; Inhibition of the uptake in vivo i.p. ED50 5-HT [1, 8]: 5.7 µmol/kg
COc1ccc(C(CC(C)N)c2ccc(OC)cc2)cc1 (stereo not shown) [FLA 614, 3,3-di-(4-methoxyphenyl)-1-methyl--propylamine fumarate]	25 µmol/kg	100 µmol/kg	–	–
CNC(C)CC(c1ccccc1)c1ccc(Br)cc1 (stereo not shown) [CPK 187, N, 1-dimethyl-3(4-bromophenyl)--3-phenylpropylamine]	98 µmol/kg	> 98 µmol/kg	–	–
CC(N)/C=C(\c1ccccc1)c1ccc(Br)cc1 (stereo not shown) [CPK 204, (E)-3-amino-1-(4-bromophenyl)-1-phenylbutene oxalate]	40 µmol/kg	48 µmol/kg	–	–
CC(N)/C=C(\c1ccccc1)c1cccc(Br)c1 (stereo not shown) [CPK 215, (E)-3-amino-1-(3-bromophenyl)-1-phenylbutene]	96 µmol/kg	24 µmol/kg	–	–

— patent EP0000322A1, “Compounds having an anti-depressive or tranquilizing activity, pharmaceutical compositions containing them, and processes and intermediates for their preparation” (priority 1977, dated 1979)
